The target in assay [1] is T1, Mu-type opioid receptor (Cavia porcellus, UniProt P97266). The experiment in a line: Antagonist activity against mu-opioid receptor in guinea pig ileum in the presence of morphine. It is filed as functional, tissue-based.
The target in assay [2] is Delta-type opioid receptor (Mus musculus, UniProt P32300). The experiment in a line: Antagonist activity against delta-opioid receptor in mouse vas deferens in the presence of DADLE. It counts as functional, tissue-based.
Sequence of Delta-type opioid receptor (P32300 whole entry): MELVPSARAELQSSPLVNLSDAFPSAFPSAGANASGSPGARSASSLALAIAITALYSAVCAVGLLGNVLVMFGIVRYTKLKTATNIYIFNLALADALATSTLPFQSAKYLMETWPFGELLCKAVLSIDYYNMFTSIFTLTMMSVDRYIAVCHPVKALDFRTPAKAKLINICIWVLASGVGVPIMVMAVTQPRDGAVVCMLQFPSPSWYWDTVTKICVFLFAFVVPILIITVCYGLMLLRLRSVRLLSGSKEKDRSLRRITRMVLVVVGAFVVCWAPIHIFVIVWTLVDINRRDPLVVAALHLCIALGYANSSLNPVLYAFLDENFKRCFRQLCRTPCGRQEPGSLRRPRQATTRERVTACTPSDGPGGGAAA
Assay [3] addresses T2, Kappa-type opioid receptor (Cavia porcellus, UniProt P41144). The experiment in a line: Antagonist activity against kappa-opioid receptor in guinea pig ileum in the presence of ethylketazocine. It is filed as functional, tissue-based.
The target in assay [4] is T1, Mu-type opioid receptor. The experiment in a line: Binding affinity against mu-opioid receptor in guinea pig brain membranes. It is filed as cell membranes, Membrane.
For assay [5], the target named is T2, Kappa-type opioid receptor. The experiment in a line: Binding affinity against kappa-opioid receptor in guinea pig brain membranes. It is filed as cell membranes, Membrane.

T1 sequence (P97266 whole entry): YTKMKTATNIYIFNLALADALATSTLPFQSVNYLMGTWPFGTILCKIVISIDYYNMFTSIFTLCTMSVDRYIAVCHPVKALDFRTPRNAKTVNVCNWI
T2 sequence (P41144 whole entry): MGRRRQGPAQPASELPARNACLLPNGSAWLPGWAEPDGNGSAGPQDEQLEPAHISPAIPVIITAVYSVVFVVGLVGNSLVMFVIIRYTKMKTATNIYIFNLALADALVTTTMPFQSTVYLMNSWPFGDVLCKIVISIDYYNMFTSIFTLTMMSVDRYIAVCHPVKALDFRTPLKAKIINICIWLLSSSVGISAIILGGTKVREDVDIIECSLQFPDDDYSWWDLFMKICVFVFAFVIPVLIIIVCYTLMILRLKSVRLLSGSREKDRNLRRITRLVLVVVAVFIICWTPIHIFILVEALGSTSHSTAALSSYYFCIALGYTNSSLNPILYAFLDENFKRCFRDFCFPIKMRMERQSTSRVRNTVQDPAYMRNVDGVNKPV

As for `Oc1ccc2c3c1O[C@H]1c4[nH]c5ccccc5c4C[C@@]4(O)[C@@H](C2)N(CC2CC2)CC[C@]314` [NALTRINDOLE], the half-maximal inhibitory concentration (IC50) on Mu-type opioid receptor [1] was 11.2 µM; in assay [2], 459 µM; in assay [3], 2 µM.

Take `Oc1ccc2c3c1O[C@H]1Cc4c([nH]c5ccccc45)[C@H]4[C@@H](C2)N(CC2CC2)CC[C@]314`: the inhibitory constant (Ki) on Mu-type opioid receptor [4] was 0.0049 µM; in assay [5], 0.033 µM. For the same compound, the IC50 in assay [2] came to 8.2 µM.

In the case of `CN1CC[C@]23c4c5ccc(O)c4O[C@H]2Cc2c([nH]c4ccccc24)[C@H]3[C@H]1C5`, the values for the IC50 (at Mu-type opioid receptor [1]; in assay [2]; in assay [3]) were 0.92 µM, 1 µM and 0.99 µM, respectively.
